Legend:
[1] = tested on: Kidney
Description: (§9) Toxicity was asssessed by the methods reported in Toxicology in Vitro, 15 (2001) 571-577, J. Luber Narod et al.: “Evaluation of the use of in vitro methodolodies as tools for screening new compounds for potential in vivo toxicity”.

[2] = tested on: A-498; test: Inhibition of cells growth by colorimetric assay (SRB), A-498; type: cell-based
Description: (§1) 2°.—Inhibition of Cells Growth by Colorimetric Assay.
(§2) A colorimetric type of assay, using sulforhodamine B (SRB) reaction has been adapted for a quantitative measurement of cell growth and viability [following the technique described by Philip Skehan, et al. (1990), New colorimetric cytotoxicity assay for anticancer drug screening, J. Natl. Cancer Inst., 82:1107-1112]
(§3) This form of the assay employs 96 well cell culture microplates of 9 mm diameter (Faircloth, 1988; Mosmann, 1983). Most of the cell lines are obtained from American Type Culture Collection (ATCC) derived from different human cancer types.
(§4) Cells are maintained in RPMI 1640 10% FBS, supplemented with 0.1 g/l penicillin and 0.1 g/l streptomycin sulfate and then incubated at 37° C., 5% CO2 and 98% humidity. For the experiments, cells were harvested from subconfluent cultures using trypsin and resuspended in fresh medium before plating.
(§5) Cells are seeded in 96 well microtiter plates, at 5×10^3 cells per well in aliquots of 195 μl medium, and they are allowed to attach to the plate surface by growing in drug free medium for 18 hours. Afterward, samples are added in aliquots of 5 μl in a ranging from 10 to 10^−8 μg/ml, dissolved in DMSO/EtOH/PBS (0.5:0.5:99). After 48 hours exposure, the antitumor effect are measured by the SRB methodology: cells are fixed by adding 50 μl of cold 50% (wt/vol) trichloroacetic acid (TCA) and incubating for 60 minutes at 4° C. Plates are washed with deionized water and dried. One hundred μl of SRB solution (0.4% wt/vol in 1% acetic acid) is added to each microtiter well and incubated for 10 minutes at room temperature. Unbound SRB is removed by washing with 1% acetic acid. Plates are air dried and bound stain is solubilized with Tris buffer. Optical densities are read on a automated spectrophotometric plate reader at a single wavelength of 490 nm.
(§6) The values for mean+/−SD of data from triplicate wells are calculated. Some parameters for cellular responses can be calculated: GI=growth inhibition, TGI=total growth inhibition (cytostatic effect) and LC=cell killing (cytotoxic effect).
(§7) Obtained results may predict the usefulness of a certain drug as a potential cancer treatment. For this technique, compounds which show GI50 values smaller than 10 μg/ml are selected to continue with further studies. GI50's data allow to predict that not only could a drug be cystostatic, but also it could have a potential in terms of tumor reduction.

[3] = tested on: Skeletal
Description: as §9

[4] = tested on: Liver
Description: as §9

[5] = tested on: SW620; test: Inhibition of cells growth by colorimetric assay (SRB), SW620; type: cell-based
Description: as §1, §2, §3, §4, §5, §6, §7

[6] = tested on: Myelo
Description: as §9

[7] = tested on: Heart
Description: as §9

[8] = tested on: HT-29; test: Inhibition of cells growth by colorimetric assay (SRB), HT-29; type: cell-based
Outline: (§8)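 SRB read-out at 490 nm after 48 h drug exposure (10 to 10^−8 μg/ml) of cells plated at 5×10^3/well and attached 18 h in drug-free RPMI 1640/10% FBS. Triplicate means give GI, TGI (cytostatic) and LC (cytotoxic).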

[9] = tested on: DU-145; test: Inhibition of cells growth by colorimetric assay (SRB), DU-145; type: cell-based
Outline: as §8

[10] = tested on: SK-MEL-28; test: Inhibition of cells growth by colorimetric assay (SRB), SK-MEL-28; type: cell-based
Outline: as §8

[11] = tested on: A-549; test: Inhibition of cells growth by colorimetric assay (SRB), A-549; type: cell-based
Outline: as §8

[12] = tested on: MCF-7; test: Inhibition of cells growth by colorimetric assay (SRB), MCF-7; type: cell-based
Description: as §1, §2, §3, §4, §5, §6, §7

[13] = tested on: MDA-MB-231; test: Inhibition of cells growth by colorimetric assay (SRB), MDA-MB-231; type: cell-based
Description: as §1, §2, §3, §4, §5, §6, §7

With `COc1cc2c(cc1OC(=O)OC(C)(C)C)CCN[C@]21CS[C@@H]2c3c(OC(=O)OC(C)(C)C)c(C)c4c(c3[C@H](COC1=O)N1C2[C@H]2c3c(cc(C)c(OC)c3O)C[C@@H]([C@@H]1O)N2C)OCO4` (some centres unmarked) [Compound 173] the “Toxicity Data Kidney” value [1] was 7.09E-08, the LC50 ([2]; Homo sapiens, A498, 48 h, read-out: A-498 LC50) was 21.7 nM and the GI50 ([2]; Homo sapiens, A498, SRB assay, 48 hours exposure, read-out: A-498 GI50) was 2.17 nM. The “A-498 TGI” value ([2]; SRB assay, 48 hours exposure) was 4.35E-09, the “Toxicity Data Skeletal” value [3] was 2.49E-06 and the “Toxicity Data Liver” value [4] was 4.03E-08. The GI50 ([5]; Homo sapiens, SW-620, 48 h, read-out: SW-620 GI50) was 3.26 nM, the LC50 ([5]; Homo sapiens, SW-620, 48 h, read-out: SW-620 LC50) was 21.7 nM and the “SW-620 TGI” value ([5]; SRB assay, 48 hours exposure) was 6.52E-09. The “Toxicity Data Myelo” value [6] was 4.98E-06, the “Toxicity Data Heart” value [7] was 1.19E-07 and the GI50 ([8]; Homo sapiens, HT-29, 48 h, SRB assay, 48 hours exposure, read-out: HT-29 GI50) was 2.17 nM. The LC50 (concentration for 50% cell killing) ([8]; Homo sapiens, HT-29, 48 h, read-out: HT-29 LC50, SRB assay, 48 hours exposure) was 9.78 nM, the “HT-29 TGI” value ([8]; SRB assay, 48 hours exposure) was 6.52E-09 and the GI50 ([9]; Homo sapiens, DU-145, 48 h, SRB assay, 48 hours exposure, read-out: DU-145 GI50) was 1.09 nM. The CC50 ([9]; Homo sapiens, DU-145, 48 h, read-out: DU-145 LC50, SRB assay, 48 hours exposure) was 3.26 nM, the “DU-145 TGI” value ([9]; SRB assay, 48 hours exposure) was 2.17E-09 and the GI50 ([10]; Homo sapiens, SK-MEL-28, 48 h, SRB assay, 48 hours exposure, read-out: MEL-28 GI50) was 2.17 nM. For the same compound, the CC50 ([10]; Homo sapiens, SK-MEL-28, 48 h, read-out: MEL-28 LC50, SRB assay, 48 hours exposure) was 10.9 nM, the “MEL-28 TGI” value ([10]; SRB assay, 48 hours exposure) was 5.43E-09 and the GI50 ([11]; Homo sapiens, A549, 48 h, read-out: A-549 GI50) was 3.26 nM. The LC50 (concentration for 50% cell killing) ([11]; Homo sapiens, A549, 48 h, read-out: A-549 LC50, SRB assay, 48 hours exposure) was 10.9 nM, the “A-549 TGI” value ([11]; SRB assay, 48 hours exposure) was 4.35E-09 and the GI50 ([12]; Homo sapiens, MCF7, 48 h, read-out: MCF GI50) was 3.26 nM. The CC50 ([12]; Homo sapiens, MCF7, 48 h, read-out: MCF LC50) was 109 nM, the “MCF TGI” value ([12]; SRB assay, 48 hours exposure) was 9.78E-09 and the CC50 ([13]; Homo sapiens, MDA-MB-231, 48 h, read-out: MB-231 LC50) was 21.7 nM. For the same compound, the GI50 ([13]; Homo sapiens, MDA-MB-231, SRB assay, 48 hours exposure, read-out: MB-231 GI50) was 2.17 nM and the “MB-231 TGI” value ([13]; SRB assay, 48 hours exposure) was 7.61E-09.
